Data taken from ChEMBL document CHEMBL1201862, “PubChem BioAssay data set” (2004).
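Cultured in 96-well plates, cells were exposed to test compound for 48 hours across five concentrations. GI50 is the concentration that inhibits growth by half.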 The source made the active and inactive calls. No stated cut-off is given here; in the data, active = GI50 up to about 1.1 µM and inactive = higher.

Assays:
Assay in all cases: DTP human tumour cell line panel, 48 h
DMS-273 = test system: DMS-273
HOP-18 = test system: HOP-18
DMS-114 = test system: DMS-114
DLD-1 = test system: DLD-1
KM-20L2 = test system: KM-20L2
RXF 631 = test system: RXF 631
SNB-78 = test system: SNB-78
M19-MEL = test system: M19-MEL
XF498 = test system: XF498

Measured: GI50

CCCCCCCCCCCCCCCCOC(=O)C(C(=O)OCCCCCCCCCCCCCCCC)[N+](C)(C)CCOC(C)=O
inactive: DMS-273 9.2 µM | HOP-18 16.7 µM | DMS-114 17.9 µM | DLD-1 14.2 µM | KM-20L2 18.6 µM | RXF 631 12.5 µM | SNB-78 19.9 µM | M19-MEL 13.9 µM

Nc1ccccc1N
inactive: DMS-273 > 100 µM | HOP-18 > 100 µM | DLD-1 > 100 µM | M19-MEL > 100 µM

CCN(CC)CC(C(C)=O)C(c1ccccc1)c1c(O)c2ccccc2oc1=O (centres undefined)
inactive: DMS-273 > 100 µM | HOP-18 > 100 µM | DMS-114 > 100 µM | DLD-1 > 100 µM | KM-20L2 > 100 µM | SNB-78 > 100 µM | XF498 > 100 µM | M19-MEL > 100 µM

O=C1OC(/C=C/c2ccccc2)C(=O)C1=O (centres undefined)
inactive: DMS-273 > 100 µM | HOP-18 23.8 µM | DLD-1 > 100 µM | KM-20L2 > 100 µM | XF498 > 100 µM | M19-MEL > 100 µM

CC1(C)CCC(Sc2ccccc2)O1 (centres undefined)
inactive: DMS-273 > 100 µM | DMS-114 > 100 µM | DLD-1 > 100 µM | KM-20L2 > 100 µM | SNB-78 > 100 µM | XF498 > 100 µM | M19-MEL > 100 µM

COc1ccc(NC(=O)CC/C(CC(=O)c2ccco2)=N/Nc2ccc([N+](=O)[O-])cc2[N+](=O)[O-])cc1
inactive: DMS-273 57.7 µM | HOP-18 26.2 µM | DMS-114 23.6 µM | KM-20L2 > 100 µM | RXF 631 38.8 µM | SNB-78 > 100 µM | XF498 22.8 µM | M19-MEL 58.1 µM

O=C(CCc1nnc2s/c(=C\c3ccccc3)c(=O)n12)Nc1cc(Cl)ccc1Cl
inactive: DMS-273 > 100 µM | HOP-18 > 100 µM | DMS-114 > 100 µM | DLD-1 > 100 µM | KM-20L2 > 100 µM | RXF 631 > 100 µM | SNB-78 > 100 µM | XF498 > 100 µM | M19-MEL > 100 µM

Cc1cc(Cl)cc2c1NC(=O)C2=O.O=C(c1ccccc1)C(F)(F)F
inactive: DMS-273 50.7 µM | HOP-18 59.7 µM | DMS-114 30.7 µM | DLD-1 60.1 µM | KM-20L2 76 µM | SNB-78 24.4 µM | XF498 30.1 µM | M19-MEL 13.3 µM

CCn1cc(/C=C/C(C)c2cn(CC)c(=O)[nH]c2=O)c(=O)[nH]c1=O (centres undefined)
inactive: DMS-273 > 100 µM | HOP-18 > 100 µM | DMS-114 > 100 µM | DLD-1 > 100 µM | KM-20L2 > 100 µM | RXF 631 > 100 µM | M19-MEL > 100 µM

N#CC12CC3(CCC1CCC1(C2)OCCO1)OCCO3 (centres undefined)
inactive: DMS-273 > 100 µM | HOP-18 > 100 µM | DMS-114 > 100 µM | DLD-1 > 100 µM | KM-20L2 > 100 µM | RXF 631 > 100 µM | SNB-78 > 100 µM | XF498 > 100 µM | M19-MEL > 100 µM

CN(C)c1ccc(/C=c2\sc3nc4ccccc4n3c2=O)cc1
inactive: DMS-273 > 100 µM | HOP-18 > 100 µM | DMS-114 > 100 µM | DLD-1 > 100 µM | KM-20L2 > 100 µM | RXF 631 > 100 µM | SNB-78 > 100 µM | XF498 > 100 µM | M19-MEL > 100 µM

C=CCN(N=O)C(=O)ON1C(=O)CCC1=O
inactive: DMS-273 > 100 µM | HOP-18 > 100 µM | DMS-114 > 100 µM | DLD-1 > 100 µM | KM-20L2 > 100 µM | RXF 631 > 100 µM | SNB-78 > 100 µM | M19-MEL > 100 µM

Cn1c(=O)c(C(c2ccc([N+](=O)[O-])cc2)c2c(O)c3ccccc3n(C)c2=O)cc2ccccc21 (centres undefined)
inactive: DMS-273 37.2 µM | HOP-18 42.5 µM | DMS-114 56.2 µM | DLD-1 36.8 µM | KM-20L2 45 µM | RXF 631 49.9 µM | SNB-78 43.2 µM | XF498 55.3 µM | M19-MEL 35.5 µM

COC(=O)[C@@H]1C(=O)O[C@@H](c2ccc3c(c2)OCO3)[C@@H]1C(=O)OC.COC(=O)[C@H]1C(=O)O[C@@H](c2ccc3c(c2)OCO3)[C@@H]1C(=O)OC
inactive: DMS-273 > 100 µM | DMS-114 > 100 µM | DLD-1 > 100 µM | KM-20L2 > 100 µM | RXF 631 > 100 µM | SNB-78 > 100 µM | M19-MEL > 100 µM

COc1cc(CC(=O)c2ccc3c(c2)OCO3)cc(OC)c1OC
inactive: HOP-18 > 100 µM | DMS-114 27.9 µM | DLD-1 > 100 µM | KM-20L2 > 100 µM | RXF 631 53.7 µM | SNB-78 > 100 µM | M19-MEL > 100 µM

c1ccc(/N=C2\c3ccccc3C3=NCCCN32)cc1
inactive: DMS-273 36.3 µM | DMS-114 28.2 µM | DLD-1 39.2 µM | KM-20L2 59.2 µM | RXF 631 85.5 µM | SNB-78 > 100 µM | XF498 85.5 µM | M19-MEL 53.6 µM

CC(C)=CCC/C(C)=C/CC/C(C)=C/CC/C=C(\C)CC/C=C(\C)CCC1SC1(C)C (centres undefined)
inactive: DMS-273 > 100 µM | HOP-18 > 100 µM | DMS-114 75.7 µM | DLD-1 > 100 µM | KM-20L2 > 100 µM | SNB-78 > 100 µM | M19-MEL > 100 µM

C/C=C1/C=CC2c3[nH]c4ccccc4c3CCN2C1 (centres undefined)
inactive: DMS-273 > 400 µM | HOP-18 7.11 µM | DMS-114 296 µM | DLD-1 > 400 µM | KM-20L2 > 400 µM | RXF 631 > 400 µM | XF498 > 400 µM | M19-MEL > 400 µM

NC(=O)Nc1c([N+](=O)[O-])cc(C(F)(F)F)cc1[N+](=O)[O-]
inactive: DMS-273 > 100 µM | KM-20L2 29.2 µM | RXF 631 65.9 µM | SNB-78 > 100 µM | XF498 53.6 µM

Cn1nc(-c2ccccc2)c2c(/C=C/c3ccc(F)cc3)onc2c1=O
inactive: DMS-273 > 100 µM | HOP-18 11.3 µM | DLD-1 > 100 µM | KM-20L2 > 100 µM | XF498 14.8 µM | M19-MEL > 100 µM

CCSC1(SCC)CC(Cc2ccc(OC)cc2)N(/C=N/C(C)(C)C)C1 (centres undefined)
inactive: DMS-273 37.4 µM | HOP-18 41.1 µM | DMS-114 20.1 µM | DLD-1 33.5 µM | KM-20L2 12.9 µM | SNB-78 31.8 µM | XF498 18.1 µM | M19-MEL 29 µM

COCCCCCC(=O)CP(=O)(OC)OC
inactive: DMS-273 > 100 µM | HOP-18 > 100 µM | DMS-114 > 100 µM | DLD-1 > 100 µM | KM-20L2 > 100 µM | SNB-78 > 100 µM | XF498 > 79.6 µM | M19-MEL > 100 µM

O=C(NCCOCCO)c1ccc(O)cc1
inactive: DMS-273 > 100 µM | HOP-18 > 100 µM | DMS-114 > 100 µM | DLD-1 > 100 µM | KM-20L2 > 100 µM | XF498 55 µM | M19-MEL > 100 µM

COc1ccc(C2CCc3cc4c(cc3/C2=N/OC(C)=O)OCO4)cc1OC (centres undefined)
inactive: DMS-273 24.8 µM | HOP-18 26.7 µM | DMS-114 10.7 µM | KM-20L2 22.3 µM | RXF 631 25.5 µM | SNB-78 41.4 µM | XF498 18.4 µM | M19-MEL 22.1 µM
